Here are results for six compounds from patent US9604945B2, “Sydnonimines-specific dopamine reuptake inhibitors and their use in treating dopamine related disorders” (priority 2007, dated 2017).

Experiment [1] addresses dopamine transporter (DAT) (Cavia porcellus, UniProt H0WCX4). In words: Dopamine transporter binding assay [3H]WIN 35,428. On the set-up: species or system Guinea Pig. Conditions: for inhibition at 10 µM: read-out: INH at 10 μM DAT. Here is the method:
DAT inhibition activity was tested according to the procedure described by J. Javitz et al., Mol. Pharmacol., 26: 35-44 (1984). The test results for a number of representative compounds of the invention are reported hereinbelow.
I. Dopamine Transporter Binding Assay [3H]WIN 35,428
• This assay was carried out according to the procedure described by Javitch, J. J. et al., Mol. Pharmacol. 26: 35-44; 1984
A. Tissue Preparation (Prepare all Solutions on Ice) • 1. Thaw frozen brains from male Guinea Pigs (in assay buffer) and place in 50 mM TRIS-HCl (pH 7.4 at 25° C. with 120 mM NaCl). Isolate striatum. • 2. Use a Polytron to homogenize tissue in 20 vols. (w/v) of 50 mM Tris-HCl (pH 7.4 at 25° C. with 120 mM NaCl). • 3. Centrifuge homogenate at 48,400×g for approximately 10 minutes at 4° C. Discard supernatant. • 4. Wash pellet an additional time as described in steps 2 and 3. • 5. Store pellet on ice until needed for binding assay. • 6. Using a Polytron (setting 5; approximately 10 seconds) resuspend pellet in 50 mM Tris-HCl (pH 7.4 at 25° C. with 120 mM NaCl) to an initial concentration of 10 mg/ml (original wet weight), such that the final concentration is 8 mg/ml or 4.0 mg tissue/tube.
B. Binding Reaction • 1. Each tube receives the following components: • 50 ul drug or vehicle • 50 ul [3H]-WIN 35,428 • 400 ul tissue suspension. • 2. Initiate binding reaction with the addition of tissue, and incubate for 120 minutes at 0° C. (on ice). • 3. Terminate binding reaction by rapid filtration of tube contents onto untreated Whatman GF/C filters. • 4. Rinse the assay tubes once with ice cold 50 mM TRIS HCl (pH 7.4 at 25° C. with 120 mM NaCl, BSA), then rapidly rinse the filters with 6×1 mls/tube of the same wash buffer. • 5. Radioactivity trapped onto the filters is assessed using LSM machine. Let sit for 3 hours in scint cocktail.
C. Dopamine Tranasporter Binding Assay
Materials and Reagents • 1. [3H]-WIN 35-428 is diluted to a concentration of 60 nM in 50 mM TRIS HCl (pH 7.4 at 25° C. with 120 mM NaCl). Thus, the final ligand concentration is 6 nM. • 2. Non-specific binding is defined as that remaining in the presence of 1×10^-6 M GBR12909 (room temperature cabinet). GBR12909 MW=523.5 g/mol. Will solubilize in 4% DMSO (sonicate 15 minutes). Aliquots can be used (1E-3). • 3. The reference compound for the assay is GBR12909 and is diluted in 4% DMSO and is then run at the following final concentrations: 1×10^−10, 5×10^−10, 2×10^−9, 5×10^−9, 1×10^−8, 2×10^−8, 5×10^−8, 1×10^−7, 2×10^−7, 5×10^−7, 1×10^−6, 5×10^−6. • 4. The positive control GBR12909 and is run at the final concentrations of: 2×10-8, 1×10^−7, 5×10^−7M. • 5. The Kd for the receptor is 28.0 nM. Buffers

The target of experiment [2] is Norepinephrine Transporter (Human Recombinant) (Homo sapiens (Human), UniProt P23975). Briefly: Norepinephrine transporter (human recombinant) binding assay, [3H]-Nisoxetine. Conditions: for inhibition at 10 µM: read-out: INH at 10 μM NET. As for the experimental part:
II: Norepinephrine Transporter (Human Recombinant) Binding Assay • This assay was carried out in accordance with the procedure described by Raisman, R, et al. Eur. Jrnl. Pharmacol. 78: 345-351 (1982) with modifications. See also, Langer, S., et al., Eur. Jrnl. Pharmacol, 72: 423-4 (1981). Tissue Preparation • 1. hrNET (Receptor Biology; RBNET) is diluted in assay buffer to 2.5 microunits/ml, so that each tube receives 0.5 microunits, or 2 microunits/ml. • NOTE: 100 microassays, add 20 mis of buffer. Binding Reaction • 1. Each tube receives the following components: • 25 ul drug or vehicle • 25 ul [^3H]-Nisoxetine • 200 ul tissue suspension. • 2. Initiate binding reaction with the addition of tissue, and incubate at room temperature for 1 hour. • 3. Terminate binding reaction by rapid filtration of tube contents onto 0.1% PEI treated GF/C filters (TopCount). • 4. Rinse the assay tubes once with ice cold 50 mM NaCl, then rapidly rinse the filters with 6×1 ml/tube of the same wash buffer. • 5. Radioactivity trapped onto the filters is assessed using liquid scintillation spectrophotometer after soaking the filters for at least 1 hour in scintillation cocktail. Materials and Reagents • 1. The receptor source is human recombinant/CHO. • 2. [^3H]-Nisoxetine, diluted to a concentration of 10 nM in assay buffer, is used as the radioligand. Thus, the final ligand concentration is 1 nM. • 3. Non specific binding is defined as that remaining in the presence of 1×10^−6M desipramine (MW=302.8) (Make fresh: in bag with dessicating rocks 1, dissolves in water 1E-3). • 4. The reference compound for the assay is desipramine. Desimpramine is run at following final concentrations: • 1×10^−10, 2×10^−10, 5×10^−10, 1×10^−9, 2×10^−9, 5×10^−9, 1×10^−8, 2×10^−8, 5×10^−8, 1×10^−7, 2×10^−7, 5×10^−7M • 5. The positive control is any of the above run at the final concentrations of: • 1×10^−9, 5×10^−9, 2×10^−8 M. • 6. The Kd for the receptor is 3 nM. Buffers

For experiment [3] the following is noted: in vivo; cited from earlier work.

By Ki is commonly meant the dissociation constant of the complex between target and ligand, obtained from inhibition or displacement.

Read-outs that look alike come from different tables or passages of the source.

dopamine transporter (DAT), sequence (H0WCX4 1-619): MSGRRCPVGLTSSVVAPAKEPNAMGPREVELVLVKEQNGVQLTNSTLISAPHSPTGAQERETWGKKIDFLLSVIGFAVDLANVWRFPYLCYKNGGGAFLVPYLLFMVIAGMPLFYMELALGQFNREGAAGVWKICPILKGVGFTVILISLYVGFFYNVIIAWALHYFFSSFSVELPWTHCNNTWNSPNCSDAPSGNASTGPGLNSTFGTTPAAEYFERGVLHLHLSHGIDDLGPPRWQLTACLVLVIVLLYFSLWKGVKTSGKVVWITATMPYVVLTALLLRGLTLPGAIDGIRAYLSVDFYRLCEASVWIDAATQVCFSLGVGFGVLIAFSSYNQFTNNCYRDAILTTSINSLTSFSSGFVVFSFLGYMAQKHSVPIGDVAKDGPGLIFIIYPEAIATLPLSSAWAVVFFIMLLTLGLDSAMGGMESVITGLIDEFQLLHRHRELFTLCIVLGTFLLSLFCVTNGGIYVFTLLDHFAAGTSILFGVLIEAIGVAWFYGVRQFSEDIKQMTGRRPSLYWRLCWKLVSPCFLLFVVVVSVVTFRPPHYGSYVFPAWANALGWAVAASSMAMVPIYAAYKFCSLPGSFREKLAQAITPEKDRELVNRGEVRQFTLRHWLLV

Consider `O=C(/N=c1\[cH-][n+](Cc2ccccc2)no1)Nc1ccccc1` [Example 1, N-phenylcarbamoyl-3-(benzyl)-sydonimine], for which, in experiment [1], affinity was put at a Ki of 36 nM and the inhibition at 10 µM came to 90%. The inhibition at 10 µM in experiment [2] amounted to 0%.

`O=C([N-]c1c[n+](Cc2ccc(C(=O)O)cc2)no1)Nc1ccccc1` [Example 2]: in experiment [1] (10 μM), the “INH at 10 μM DAT” value stood at 92%. Also, the inhibition constant Ki in experiment [1] (read-out: Ki DAT) was found to be 2.7 nM. In experiment [2] (10 μM), the “INH at 10 μM NET” value worked out at 11%.

As to `O=C(/N=c1\[cH-][n+](CCc2ccccc2)no1)Nc1ccc(Cl)c(Cl)c1` [Example 4, N-(3′,4′-dichlorophenyl) carbamoyl-3-phenethyl sydnonimine], in experiment [1], the affinity, expressed as Ki, was 40 nM and the inhibition at 10 µM was 99%. The inhibition at 10 µM in experiment [2] was determined as 2%.

Turning to `O=C(/N=c1\[cH-][n+](CCc2ccc([N+](=O)[O-])cc2)no1)Nc1ccc([N+](=O)[O-])c([N+](=O)[O-])c1` [Example 5, N-(3′,4′-dinitrophenyl)carbamoyl-3-p-nitrophenethyl sydnonimine], in experiment [1], the affinity, expressed as Ki, was 100 nM and the inhibition at 10 µM was 85%. In experiment [2], the inhibition at 10 µM worked out at 4%.

On to `O=C(/N=c1\[cH-][n+](Cc2ccc(F)cc2)no1)Nc1ccccc1` [Example 7, N-phenylcarbamoyl-3-(p-fluoro-benzyl)-sydnonimine], for which, in experiment [1], the affinity corresponds to a Ki of 0.46 nM and the inhibition at 10 µM is 99%. The inhibition at 10 µM in experiment [2] is 15%.

In the case of `CC(Cc1ccccc1)[n+]1cc([N-]C(=O)Nc2ccccc2)on1` (stereo not shown) [sydnocarb, 3-(1-methyl-2-phenylethyl)-N-(phenylcarbomoyl)sydnone imine], the “Effect on locomotor activity in open field studies” value in experiment [3] is reported as “locomotor stimulating effect”.
